Here are results for three compounds from patent US7799913B2, “Carbonylbenzoxazine compounds for enhancing glutamatergic synaptic responses” (Cortex Pharmaceuticals, Inc., priority 2001, dated 2010).

A short description of data set [1]: eight-arm radial maze task for cognition/memory enhancement. It is filed as in vivo. From the text:
This task has been described previously (Staubli et al., PNAS 91:777-781 (1994)) and Lynch and Rogers, PCT Pubn. No. WO 94/02475).
This test has been described previously by Staubli et al., PNAS 91:777-781 (1994) and Lynch and Rogers, U.S. Pat. No. 5,747,492.

Another data set deals with AMPA receptors. The experiment in a line: field EPSP amplitude in field CA1 of rat hippocampal slice. To be noted: for AMP: concentration of modulator that increases the amplitude of the fEPSP by 10%: rat hippocampal slice. The format is cell-based. The text has this:
The field EPSP, (excitatory post-synaptic potential) recorded in field CA1 after stimulation of CA3 axons is known to be mediated by AMPA receptors, which are present in the synapses (Kessler et al., Brain Res. 560: 337-341 (1991)). Drugs that selectively block the receptor selectively block the field EPSP (Muller et al., Science, supra). […] These effects are mirrored in the field EPSP (see, for example, Staubli et al., Psychobiology, supra; Xiao et al., Hippocampus, supra; Staubli et al., Hippocampus 2: 4958 (1992)).
To obtain the data shown in Table I, a bipolar nichrome stimulating electrode was positioned in the dendritic layer (stratum radiatum) of the hippocampal subfield CA1 close to the border of subfield CA3, as described in Example 64. Current pulses (0.1 msec) through the stimulating electrode activate a population of the Schaffer-commissural (SC) fibers, which arise from neurons in the subdivision CA3 and terminate in synapses on the dendrites of CA1 neurons. Activation of these synapses causes them to release the transmitter glutamate. Glutamate binds to post-synaptic AMPA receptors, which then transiently open an associated ion channel and permit a sodium current to enter the postsynaptic cell. This current results in a voltage in the extracellular space (the field EPSP), which is recorded by a high impedance recording electrode positioned in the middle of the stratum radiatum of CA1.
The intensity of the stimulation current was adjusted to produce half-maximal EPSPs (typically about 1.5-2.0 mV). Paired stimulation pulses were given every 40 sec with an interpulse interval of 200 msec, as described further in Example 64.
Hippocampal slices were maintained in a recording chamber continuously perfused with artificial cerebrospinal fluid (ACSF). During 15-30 minute intervals, the perfusion medium was switched to one containing various concentrations of the test compounds. Responses collected immediately before and at the end of drug perfusion were superimposed in order to calculate the percent increase in EPSP amplitude.
(§1) The physiological effects of invention compounds were tested in vitro on primary cultures of rat cortical neurons as described by Hamill, O P, et al. in Pflügers Arch 391: 85-100 (1981) or on slices of rat hippocampus according to the following procedure. Excitatory responses (field EPSPs) were measured in hippocampal slices, which were maintained in a recording chamber continuously perfused with artificial cerebrospinal fluid (ACSF). During a 15-30 minute interval, the perfusion medium was switched to one containing various concentrations of the test compounds. Responses collected immediately before and at the end of drug perfusion were superimposed in order to calculate the percent increase in EPSP amplitude.
To conduct these tests, the hippocampus was removed from anesthetized, 2 month old Sprague-Dawley rats and in vitro slices (400 μm thick) were prepared and maintained in an interface chamber at 35° C. using conventional techniques [see, for example, Dunwiddie and Lynch, J. Physiol. 276: 353-367 (1978)]. The chamber was constantly perfused at 0.5 mL/min with ACSF containing (in mM): NaCl 124, KCl 3, KH2PO4 1.25, MgSO4 2.5, CaCl2 3.4, NaHCO3 26, glucose 10 and L-ascorbate 2. A bipolar nichrome stimulating electrode was positioned in the dendritic layer (stratum radiatum) of the hippocampal subfield CA1 close to the border of subfield CA3.
Current pulses (0.1 msec) through the stimulating electrode activate a population of the Schaffer-commissural (SC) fibers, which arise from neurons in the subdivision CA3 and terminate in synapses on the dendrites of CA1 neurons. Activation of these synapses causes them to release the transmitter glutamate. Glutamate binds to the post-synaptic AMPA receptors, which then transiently open an associated ion channel and permit a sodium current to enter the postsynaptic cell. […]

In a further data set the test system is AMPA receptor. The experiment in a line: steady-state current induced by glutamate in cortical neurons in primary culture. It is filed as cell-based, rat. To be noted: for EC2X: concentration of modulator required to double the steady state current: 300 μM glutamate on cultured neurons. Here is the method:
as §1

Take `O=C(c1ccc2nccnc2c1)N1CCCCC1` [CX516, 1-(quinoxaline-6-ylcarbonyl)piperidine, reference compound]: in data set [1] (eight-arm radial maze task), the “MEDC: Minimum Effective Dose that produces a statistically significant improvement in behavior” value is given as 12.5 mg/kg. The “Amp: concentration of compound that causes a 10% increase in the amplitude of the field EPSP” value with AMPA receptors (field CA1 of rat hippocampal slice, estimated by interpolation or extrapolation) is 80 µM. In addition, the “AMP: concentration of modulator that increases the amplitude of the fEPSP by 10%” value in the data set on AMPA receptors amounted to 80 µM. Further, the “EC2X: concentration of modulator required to double the steady state current” value in the data set with AMPA receptor was determined as 830 µM. In the data set with AMPA receptor (cortical neurons in primary culture, 300 μM glutamate), the “EC2x: concentration of compound that causes at least a doubling of the steady-state current” value worked out at 830 µM.
For orientation: melting point means the temperature, or range, at which the solid turns liquid. `CCN1COc2cc3c(cc2C1=O)OCN(CC)C3=O` [Example 21, 3,8-diethyl-2H,7H-1,3-oxazaperhydroino[5′,6′-4,5]benzo[e]1,3-oxazine-4,9-dione] returned a melting point of 236 to 237 °C. Moreover, the “AMP: concentration of modulator that increases the amplitude of the fEPSP by 10%” value in the data set with AMPA receptors amounted to 10 µM. For the same compound, in the data set with AMPA receptor, the “EC2X: concentration of modulator required to double the steady state current” value worked out at 1.8 µM.
On to `O=C1c2cc3c(cc2OC2CCCN12)C(=O)N1CCCC1O3` [Example 1, (R,S), (R,S)-3aH,9aH-pyrrolidino[2,1-b]pyrrolidino[2″,1″-2′,3′](1,3-oxazino)[5′,6′-2,1]benzo[4,5-e]1,3-oxazaperhydroine-6,12-dione], for which, in data set [1] (eight-arm radial maze MEDC), the “potency relative to CX516 (times more potent)” value was 250.
